Patent US8663669B2, “Pesticide treatment of soils or substrates with sulphur compounds” (Arkema France, priority 2002, dated 2014)

Key:
[1] = tested on: young cucumber plants (9 cm, 2 leaves, ARIS hybrid); assay: Phytotoxicity on young cucumber plants; format: in vivo
Method: For both types of crop, 4 treatments were performed on 20 plants: • untreated control • 360 kg/ha of DMDS • 540 kg/ha of DMDS • 720 kg/ha of DMDS
Five days after the treatment, the young plants are transplanted into pots 20 cm in diameter and 35 cm in height.
The observations relating to the number of leaves per plant and the visual state of the plants are carried out 15 and 41 days after the transplantation: […]

Rhizoctonia solani = assay: Fungicidal efficacy by gassing, colonized barley grains; format: cell-based; set-up: Vitality score Nm (over 11 days): scale not given here; Reduction in viability RV / Reduction in vitality score RNm: unit not given here; conditions: for Reduction in viability RV / Reduction in vitality score RNm: compared with the control
Method: These four organisms are the following:
Rhizoctonia solani: a very important group of polyphagous pathogens in the genus Rhizoctonia and which attack very many market garden crops including sweet pepper and lettuce.
• Sclerotinia sclerotiorum: sclerotia • Sclerotium rolfsii: sclerotia • Rhizoctonia solani: colonized barley grains (mycelium and sclerotia) • Phytophthora cactorum: colonized millet grains (mycelium, sporangia and oospores) Preparation of the Fungi (24 h Before the Gassing Operation) 1. Preparation of the sclerotia of Sclerotinia sclerotiorum and of Sclerotium rolfsii: The fungi are cultured on malt agar medium until the sclerotia are obtained. The sclerotia are collected in a sterile manner and stored dry in empty Petri dishes until they are used. The sclerotia used for the trial are over 3 months old and are perfectly dormant. 2. Preparation of Phytophthora cactorum and of Rhizoctonia solani: The millet and barley used for the multiplication of the two fungi are moistened with ultrapure water by immersing for 24 hours. The grains are then slightly drained and then distributed into flasks and autoclaved (3 autoclavings at 110° C. for 20 minutes, 3 times at 24 hour intervals). Fragments of fungal culture are introduced into the flasks which are then incubated at 22° C.±2° C. (white light 18 h) until homogeneous colonization is obtained. The grains are then removed from the flasks in a sterile manner, dried in the sterile stream of a safety cabinet and then stored in the dry state until they are used. Conditions for Gassing and for Desorption
All the batches of fungi to be treated are placed for a few hours at the trial temperature (20° C.). Between 35 and 300 units of fungi or “propagules” (grains or sclerotia) are subjected to gassing during each trial.
Each fumigation chamber comprising to one or more species of fungi corresponds to a glass round-bottomed flask which is impervious to the gas and has a volume of 11 litres. Each round-bottomed flask is equipped with branch connections, one at the bottom for introducing the liquid DMDS, one at the top for collecting the air sample with a syringe.
Before introducing the gas, a partial vacuum (−500 mbar) is established in the round-bottomed flask with a vacuum pump. This makes it possible, on the one hand, to avoid the phenomenon of excess pressure due to the expansibility of DMDS in the round-bottomed flask and, on the other hand, to promote better homogeneity of the air-gas mixture in the first few seconds which follow injection. The DMDS (weighed accurately to the mg) is injected with a syringe, in liquid form, through the bottom branch connection, that is to say under the screen placed at half height of the round-bottomed flask and supporting the batches of fungi. After introducing the product, the internal pressure of the round-bottomed flask is re-established at atmospheric pressure. A magnetic stirrer operates during the entire duration of the treatment in order to properly homogenize the air-gas mixture.
At the end of the gassing, the cover for the round-bottomed flask is removed. One minute after this operation, the batches of fungi gassed are taken out and left in the open air for 15 minutes for desorption of the DMDS. They are then transferred into a Petri dish, the latter remaining open for 5 minutes to allow perfect desorption of the gas. […]

a large number of fungi = conditions: as reported in U.S. Pat. No. 2,917,429; cited from earlier work
[2] = CT 1 050 g·h/m^3 (C 15.91 g/m^3, T 66 h)
[3] = CT 1 402 g·h/m^3 (C 21.24 g/m^3, T 66 h)
[4] = CT 1 450 g·h/m^3 (C 30.96 g/m^3, T 48 h)
[5] = CT 1 899 g·h/m^3 (C 28.77 g/m^3, T 66 h)
[6] = CT 1 981 g·h/m^3 (C 30.02 g/m^3, T 66 h)
[7] = CT 2 460 g·h/m^3 (C 51.25 g/m^3, T 48 h)
[8] = CT 2 471 g·h/m^3 (C 37.44 g/m^3, T 66 h)
[9] = CT 2 837 g·h/m^3 (C 42.98 g/m^3, T 66 h)
[10] = CT 2 974 g·h/m^3 (C 45.06 g/m^3, T 66 h)
[11] = CT 3 169 g·h/m^3 (C 48.02 g/m^3, T 66 h)
[12] = CT 3 467 g·h/m^3 (C 52.53 g/m^3, T 66 h)
[13] = CT 419 g·h/m^3 (C 17.46 g/m^3, T 24 h)
[14] = CT 625 g·h/m^3 (C 26.04 g/m^3, T 24 h)
[15] = CT 703 g·h/m^3 (C 29.29 g/m^3, T 24 h)
[16] = CT 907 g·h/m^3 (C 37.79 g/m^3, T 24 h)

CSSC [DMDS, dimethyl disulphide]
Visual symptom of phytotoxicity ([1]; 360, 540, 720 kg/ha, 15 and 41 days after transplantation): no visual symptom of phytotoxicity
Average number of leaves per plant ([1]; 360 kg/ha DMDS (formulation A), after 15 days): 5.3
Average number of leaves per plant ([1]; 360 kg/ha DMDS (formulation A), after 41 days): 9.8
Average number of leaves per plant ([1]; 540 kg/ha DMDS (formulation A), after 15 days): 5.7
Average number of leaves per plant ([1]; 540 kg/ha DMDS (formulation A), after 41 days): 9.7
Average number of leaves per plant ([1]; 720 kg/ha DMDS (formulation A), after 15 days): 5.7
Average number of leaves per plant ([1]; 720 kg/ha DMDS (formulation A), after 41 days): 9.9
Difference in number of leaves between untreated control and treated plants ([1]; regardless of the concentration tested (360-720 kg/ha)): no significant difference
Viability V (Rhizoctonia solani; [2]): 89.2%
Vitality score Nm (over 11 days) (Rhizoctonia solani; [2]): 7.0
Reduction in viability RV (Rhizoctonia solani; [2]): 10.8
Reduction in vitality score RNm (Rhizoctonia solani; [2]): 22.2
Viability V (Rhizoctonia solani; [3]): 96.9%
Vitality score Nm (over 11 days) (Rhizoctonia solani; [3]): 7.6
Reduction in viability RV (Rhizoctonia solani; [3]): 3.1
Reduction in vitality score RNm (Rhizoctonia solani; [3]): 15.0
Viability V (Rhizoctonia solani; [4]): 98.5%
Vitality score Nm (over 11 days) (Rhizoctonia solani; [4]): 4.4
Reduction in viability RV (Rhizoctonia solani; [4]): 1.5
Reduction in vitality score RNm (Rhizoctonia solani; [4]): 51.3
Viability V (Rhizoctonia solani; [5]): 84.3%
Vitality score Nm (over 11 days) (Rhizoctonia solani; [5]): 6.0
Reduction in viability RV (Rhizoctonia solani; [5]): 15.7
Reduction in vitality score RNm (Rhizoctonia solani; [5]): 33.2
Viability V (Rhizoctonia solani; [6]): 94.7%
Vitality score Nm (over 11 days) (Rhizoctonia solani; [6]): 7.4
Reduction in viability RV (Rhizoctonia solani; [6]): 5.3
Reduction in vitality score RNm (Rhizoctonia solani; [6]): 17.2
Viability V (Rhizoctonia solani; [7]): 11.0%
Vitality score Nm (over 11 days) (Rhizoctonia solani; [7]): 0.3
Reduction in viability RV (Rhizoctonia solani; [7]): 89.0
Reduction in vitality score RNm (Rhizoctonia solani; [7]): 96.2
Viability V (Rhizoctonia solani; [8]): 24.1%
Vitality score Nm (over 11 days) (Rhizoctonia solani; [8]): 0.6
Reduction in viability RV (Rhizoctonia solani; [8]): 75.9
Reduction in vitality score RNm (Rhizoctonia solani; [8]): 92.0
Viability V (Rhizoctonia solani; [9]): 2.2%
Vitality score Nm (over 11 days) (Rhizoctonia solani; [9]): 0.1
Reduction in viability RV (Rhizoctonia solani; [9]): 97.8
Reduction in vitality score RNm (Rhizoctonia solani; [9]): 98.4
Viability V (Rhizoctonia solani; [10]): 9.4%
Vitality score Nm (over 11 days) (Rhizoctonia solani; [10]): 0.1
Reduction in viability RV (Rhizoctonia solani; [10]): 90.6
Reduction in vitality score RNm (Rhizoctonia solani; [10]): 98.4
Viability V (Rhizoctonia solani; [11]): 1.2%
Vitality score Nm (over 11 days) (Rhizoctonia solani; [11]): 0.05
Reduction in viability RV (Rhizoctonia solani; [11]): 98.8
Reduction in vitality score RNm (Rhizoctonia solani; [11]): 99.3
Viability V (Rhizoctonia solani; [12]): 0%
Vitality score Nm (over 11 days) (Rhizoctonia solani; [12]): 0
Reduction in viability RV (Rhizoctonia solani; [12]): 100
Reduction in vitality score RNm (Rhizoctonia solani; [12]): 100
Viability V (Rhizoctonia solani; [13]): 100%
Vitality score Nm (over 11 days) (Rhizoctonia solani; [13]): 9.0
Reduction in viability RV (Rhizoctonia solani; [13]): 0
Reduction in vitality score RNm (Rhizoctonia solani; [13]): 0
Viability V (Rhizoctonia solani; [14]): 100%
Vitality score Nm (over 11 days) (Rhizoctonia solani; [14]): 8.7
Reduction in viability RV (Rhizoctonia solani; [14]): 0
Reduction in vitality score RNm (Rhizoctonia solani; [14]): 3.1
Viability V (Rhizoctonia solani; [15]): 100%
Vitality score Nm (over 11 days) (Rhizoctonia solani; [15]): 8.3
Reduction in viability RV (Rhizoctonia solani; [15]): 0
Reduction in vitality score RNm (Rhizoctonia solani; [15]): 7.3
Viability V (Rhizoctonia solani; [16]): 100%
Vitality score Nm (over 11 days) (Rhizoctonia solani; [16]): 7.1
Reduction in viability RV (Rhizoctonia solani; [16]): 0
Reduction in vitality score RNm (Rhizoctonia solani; [16]): 21.6
Activity on a large number of fungi (a large number of fungi): zero activity
